Experimental data reported in US20090311217A1, “3-SUBSTITUTED-1H-INDOLE COMPOUNDS, THEIR USE AS MTOR KINASE AND PI3 KINASE INHIBITORS, AND THEIR SYNTHESES” (priority 2008, published 2009).
pIC50: −log10 of the molar value.

Columns and labels:
Type in all cases: biochemical
PI3K-alpha = PI3K-alpha (Homo sapiens, UniProt P42336); assay: PI3K-alpha fluorescence polarization assay; settings: read-out: PI3Kα Avg. IC50
human TOR = target: T1, human TOR (Homo sapiens, UniProt P42345); assay: mTOR enzyme assay (DELFIA, His6-S6K substrate); settings: read-out: mTOR Kinase Avg. IC50
T1 construct: FLAG

PI3K-gamma = PI3K-gamma (Homo sapiens, UniProt P48736); assay: PI3K-gamma fluorescence polarization assay; settings: PI3Kγ Avg. IC50
Procedure, shortened: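 FP competition read-out: PIP3 produced displaces BODIPY-TMR-IP4 (5 nM) from GST-GRP1 PH domain (100 nM). Kinase step: 5 ng enzyme, 2.5 μM diC8-PIP2, 25 μM ATP, pH 7 HEPES/MgCl2, 1 h, 25° C; EDTA stop.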

Sequence of PI3K-gamma (P48736 whole entry, species assumed, the tested form may be a part): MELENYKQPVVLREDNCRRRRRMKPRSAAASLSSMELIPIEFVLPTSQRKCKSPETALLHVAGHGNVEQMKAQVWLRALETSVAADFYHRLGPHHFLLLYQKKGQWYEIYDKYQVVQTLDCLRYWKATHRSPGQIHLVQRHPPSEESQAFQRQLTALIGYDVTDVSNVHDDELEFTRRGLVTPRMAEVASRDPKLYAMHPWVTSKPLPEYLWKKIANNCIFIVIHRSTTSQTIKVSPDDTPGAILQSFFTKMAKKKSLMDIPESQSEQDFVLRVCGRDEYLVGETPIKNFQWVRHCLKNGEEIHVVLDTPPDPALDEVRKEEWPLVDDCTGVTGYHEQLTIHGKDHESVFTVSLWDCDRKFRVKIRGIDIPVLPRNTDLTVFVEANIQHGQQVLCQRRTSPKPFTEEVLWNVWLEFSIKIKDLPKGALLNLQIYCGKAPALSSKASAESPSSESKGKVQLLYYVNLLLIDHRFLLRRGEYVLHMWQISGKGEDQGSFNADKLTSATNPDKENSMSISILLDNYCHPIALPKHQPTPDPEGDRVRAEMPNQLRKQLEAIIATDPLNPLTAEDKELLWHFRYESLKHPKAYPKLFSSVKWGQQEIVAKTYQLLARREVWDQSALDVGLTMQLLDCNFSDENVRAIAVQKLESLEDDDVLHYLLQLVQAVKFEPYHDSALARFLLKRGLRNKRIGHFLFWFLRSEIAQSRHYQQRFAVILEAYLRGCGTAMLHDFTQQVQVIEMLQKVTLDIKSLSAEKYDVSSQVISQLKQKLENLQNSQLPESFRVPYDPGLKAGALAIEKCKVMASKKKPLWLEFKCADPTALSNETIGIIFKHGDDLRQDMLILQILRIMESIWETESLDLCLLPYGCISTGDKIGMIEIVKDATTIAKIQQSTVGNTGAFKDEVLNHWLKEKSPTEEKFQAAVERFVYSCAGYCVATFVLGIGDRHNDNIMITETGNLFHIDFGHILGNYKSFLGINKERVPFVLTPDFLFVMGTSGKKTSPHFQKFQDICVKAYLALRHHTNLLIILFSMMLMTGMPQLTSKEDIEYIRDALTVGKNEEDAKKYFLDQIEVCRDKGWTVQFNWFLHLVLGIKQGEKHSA
Sequence of PI3K-alpha (P42336 whole entry, species assumed): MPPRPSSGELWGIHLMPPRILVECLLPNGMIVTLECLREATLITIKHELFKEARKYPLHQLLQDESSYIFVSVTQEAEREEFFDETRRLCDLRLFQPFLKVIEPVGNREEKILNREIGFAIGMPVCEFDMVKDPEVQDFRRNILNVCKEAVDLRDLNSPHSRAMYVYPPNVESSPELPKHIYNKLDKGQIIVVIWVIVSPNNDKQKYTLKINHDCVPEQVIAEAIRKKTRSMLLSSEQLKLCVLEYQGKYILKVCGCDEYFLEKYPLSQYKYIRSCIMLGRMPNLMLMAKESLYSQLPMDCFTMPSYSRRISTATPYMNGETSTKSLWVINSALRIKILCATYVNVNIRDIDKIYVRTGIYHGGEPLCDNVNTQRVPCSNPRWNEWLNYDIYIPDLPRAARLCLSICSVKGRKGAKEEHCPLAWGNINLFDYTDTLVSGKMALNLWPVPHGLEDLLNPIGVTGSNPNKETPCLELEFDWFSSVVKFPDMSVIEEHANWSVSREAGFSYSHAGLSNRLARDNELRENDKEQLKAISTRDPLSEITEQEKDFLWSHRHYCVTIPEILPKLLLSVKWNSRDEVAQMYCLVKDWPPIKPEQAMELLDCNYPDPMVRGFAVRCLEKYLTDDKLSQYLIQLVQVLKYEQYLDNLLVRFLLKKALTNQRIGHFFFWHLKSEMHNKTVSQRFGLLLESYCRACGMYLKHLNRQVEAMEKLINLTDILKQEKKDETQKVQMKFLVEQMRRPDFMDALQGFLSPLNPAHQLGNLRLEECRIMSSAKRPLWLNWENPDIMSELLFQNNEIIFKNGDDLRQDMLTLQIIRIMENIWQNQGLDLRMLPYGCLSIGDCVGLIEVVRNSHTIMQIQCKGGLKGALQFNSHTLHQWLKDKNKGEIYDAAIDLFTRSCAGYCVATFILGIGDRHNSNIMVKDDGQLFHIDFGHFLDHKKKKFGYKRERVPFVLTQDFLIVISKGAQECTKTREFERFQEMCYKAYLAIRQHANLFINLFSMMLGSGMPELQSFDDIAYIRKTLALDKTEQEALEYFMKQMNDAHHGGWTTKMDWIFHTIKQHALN
Sequence of PI3K-alpha (P27986 whole entry partner, species assumed): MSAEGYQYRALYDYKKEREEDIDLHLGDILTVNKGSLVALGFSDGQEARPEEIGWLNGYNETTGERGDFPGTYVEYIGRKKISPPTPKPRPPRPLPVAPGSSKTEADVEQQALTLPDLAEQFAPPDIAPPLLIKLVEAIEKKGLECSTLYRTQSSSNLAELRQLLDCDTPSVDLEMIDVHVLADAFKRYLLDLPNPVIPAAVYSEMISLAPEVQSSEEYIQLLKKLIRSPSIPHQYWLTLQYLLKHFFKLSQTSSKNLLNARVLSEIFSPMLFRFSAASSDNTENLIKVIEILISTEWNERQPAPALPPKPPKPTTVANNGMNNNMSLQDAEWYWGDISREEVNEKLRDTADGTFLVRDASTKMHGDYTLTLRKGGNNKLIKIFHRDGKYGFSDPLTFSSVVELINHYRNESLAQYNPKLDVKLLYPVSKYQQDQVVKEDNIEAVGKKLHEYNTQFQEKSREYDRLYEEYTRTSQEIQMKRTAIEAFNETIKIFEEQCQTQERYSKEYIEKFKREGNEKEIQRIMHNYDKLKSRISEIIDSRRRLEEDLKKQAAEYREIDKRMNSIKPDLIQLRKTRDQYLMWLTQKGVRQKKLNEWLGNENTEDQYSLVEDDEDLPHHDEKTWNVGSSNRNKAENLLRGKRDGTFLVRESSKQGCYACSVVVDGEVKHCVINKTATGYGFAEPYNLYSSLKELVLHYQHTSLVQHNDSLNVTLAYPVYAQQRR

SMILES	pIC50 (PI3K-alpha)	pIC50 (human TOR)	pIC50 (PI3K-gamma)
O=C1C(=Cc2c[nH]c3cccc(-c4ccccc4)c23)Oc2cc(O)cc(O)c21 [Example 269, 4,6-dihydroxy-2-[(4-phenyl-1H-indol-3-yl)methylene]-1-benzofuran-3(2H)-one]	5.79	5.97	5.66
Cn1cc(/C=C2\Oc3cc(O)cc(O)c3C2=O)c2c(-c3ccc(-c4ccc(CN)cc4)cc3)cccc21 [Example 300, (2Z)-2-({4-[4′-(Aminomethyl)biphenyl-4-yl]-1-methyl-1H-indol-3-yl}methylene)-4,6-dihydroxy-1-benzofuran-3(2H)-one]	5.54	6.88	5.02
CN(C)Cc1ccc(-c2ccc(-c3cccc4c3c(/C=C3\Oc5cc(O)cc(O)c5C3=O)cn4C)cc2)cc1 [Example 301, (2Z)-2-[(4-{4′-[(Dimethylamino)methyl]biphenyl-4-yl}-1-methyl-1H-indol-3-yl)methylene]-4,6-dihydroxy-1-benzofuran-3(2H)-one]	5.91	6.90	5.64
COc1ccc2c(c1)c(/C=C1\Oc3cc(O)cc(O)c3C1=O)c(C(=O)N(C)C)n2CCN1CCC(O)CC1 [Example 311, 3-[(Z)-(4,6-Dihydroxy-3-oxo-1-benzofuran-2(3H)-ylidene)methyl]-1-[2-(4-hydroxypiperidin-1-yl)ethyl]-5-methoxy-N,N-dimethyl-1H-indole-2-carboxamide]	8.10	7.05	6.84
COc1ccc2c(c1)c(/C=C1\Oc3cc(O)ccc3C1=O)cn2CCCN(C)C [Example 324, (2Z)-2-({1-[3-(Dimethylamino)propyl]-5-methoxy-1H-indol-3-yl}methylene)-6-hydroxy-1-benzofuran-3(2H)-one]	7.04	6.44	6.18

Second part, the compound after the results:

pIC50 (PI3K-alpha)	pIC50 (human TOR)	pIC50 (PI3K-gamma)	SMILES
8.02	6.82	7.09	COc1ccc2c(c1)c(/C=C1\Oc3cc(O)cc(O)c3C1=O)cn2CCn1ccnc1 [Example 312, (2Z)-4,6-Dihydroxy-2-({1-[2-(1H-imidazol-1-yl)ethyl]-5-methoxy-1H-indol-3-yl}methylene)-1-benzofuran-3(2H)-one]
8.52	9.28	7.78	COc1ccc2c(c1)c(/C=C1\Oc3cc(O)cc(O)c3C1=O)c(C1CC1)n2CCO [Example 313, (2Z)-2-{[2-Cyclopropyl-1-(2-hydroxyethyl)-5-methoxy-1H-indol-3-yl]methylene}-4,6-dihydroxy-1-benzofuran-3(2H)-one]
7.54	6.81	6.93	COc1ccc2c(c1)c(/C=C1\Oc3cc(O)cc(O)c3C1=O)c(C(=O)N(C)C)n2CCn1ccnc1 [Example 314, 3-[(Z)-(4,6-Dihydroxy-3-oxo-1-benzofuran-2(3H)-ylidene)methyl]-1-[2-(1H-imidazol-1-yl)ethyl]-5-methoxy-N,N-dimethyl-1H-indole-2-carboxamide]
8.52	8.38	7.58	COc1ccc2c(c1)c(/C=C1\Oc3cc(O)cc(O)c3C1=O)c(C1CC1)n2CCN1CCC(O)CC1 [Example 315, (2Z)-2-({2-Cyclopropyl-1-[2-(4-hydroxypiperidin-1-yl)ethyl]-5-methoxy-1H-indol-3-yl}methylene)-4,6-dihydroxy-1-benzofuran-3(2H)-one]
7.40	7.64	6.75	COc1ccc2c(c1)c(/C=C1\Oc3cc(O)cc(O)c3C1=O)c(C)n2CC(=O)N(C)C [Example 322, 2-{3-[(Z)-(4,6-Dihydroxy-3-oxo-1-benzofuran-2(3H)-ylidene)methyl]-5-methoxy-2-methyl-1H-indol-1-yl}-N,N-dimethylacetamide]
6.55	7.08	6.53	COc1ccc2c(c1)c(/C=C1\Oc3cc(O)cc(O)c3C1=O)c(C(=O)N(C)C)n2CC(=O)N(C)C [Example 325, 3-[(Z)-(4,6-Dihydroxy-3-oxo-1-benzofuran-2(3H)-ylidene)methyl]-1-[2-(dimethylamino)-2-oxoethyl]-5-methoxy-N,N-dimethyl-1H-indole-2-carboxamide]
